# Tests used:
# [1] = tested on: E. coli DH10B/pOA(1)PLV49B10 cells containing the α-H-α-amino acid amide racemase gene from Ochrobactrum anthropi IA; test: Racemase activity test with D-leucine amide and whole E. coli cells (Example 5); assay type: cell-based; details: Strain A
# Method: A single colony of E. coli DH10B containing plasmid pOA(1)PLV49B10 was transferred to LB medium with kanamycin (50 mg/l) to prepare a pre-culture. After overnight incubation at 28° C. and 200 rpm, this pre-culture was used to inoculated a flask with 500 ml of 2*TY medium (10 g/l Yeast extract, 16 g/l Tryptone, 5 g/l NaCl) containing kanamycin (50 mg/l). After overnight growth at 28° C. (OD620nm=4.4) and 200 rpm, cells were harvested by centrifugation (15 min. at 6,200×g, 4° C.), and washed with 50 mM HEPES-NaOH buffer of pH 7.7.
# The cell pellets from both cultures were subsequently washed and resuspended in 25 ml of 50 mM HEPES-NaOH buffer, pH 7.7. Aliquots of 2 ml of both cell suspensions were centrifuged once more and the pellets were stored at −20° C. until execution of the activity tests described below. The remaining part of these cell suspensions was stored at −20° C. for use in Example 6.
# To determine the activity of E. coli/pOA(1)PLV49B10 and the E. coli control, the above-mentioned cell pellets were thawed and resuspended to a total volume of 1 ml with 50 mM HEPES-NaOH buffer, pH 7.7. Then, reaction mixtures of 10 ml each were prepared containing 50 mM HEPES-NaOH buffer (pH 7.7), 10 μM pyridoxal-5-phosphate (PLP), 2.5 wt % of D-leucine amide, if applicable 20 mM of EDTA to suppress the E. coli amidase activity, and 0.5 ml of the E. coli/pOA(1)PLV49B10 and E. coli DH10B/pZErO-GFPuv-wrong-orientation cell suspensions or water (for chemical blanks). Reactions were started by the addition of the cells. Reaction mixtures were incubated at 30° C. and 175 rpm. Directly after addition of the cells (t=0 hours) and after 27 and 43 hours samples were taken in which the reaction was stopped by removal of the cells via centrifugation followed by 0.22 μM filtration. Finally, the filtered samples were stored at −20° C. until analysis by chiral HPLC as described below: • column: Sumichiral OA5000 from Sumika (150×4.6 mm I.D., 5μ)+guard column • eluent: 85 v/v % 2 mM CuSO4+15 v/v % methanol • flow: 1.0 ml/min. • column temp.: 40° C. • inj. volume: 5 μl • detection: fluorescence detection after post-column reaction with o-phthalaldehyde and 2-mercaptoethanol (wavelength ex=338 nm and em>420 nm)
# [2] = Stability of substrate in chemical blanks (HEPES-NaOH buffer without cells); assay type: physicochemical; details: HEPES-NaOH buffer pH 7.7, 139 hours, concentration constant (0.7 w/w %)
# Method: 1 ml Of disintegrated cells of each of the three strains was incubated in a HEPES-NaOH buffer (20 mM) pH 7.7, to which pyridoxal-5-phosphate (0.01 mM) was added as a cofactor and D-leucine amide (60.8 mM) as a substrate in a total volume of 10 ml (0.79 w/w % D-leucine amide). After 0 and 139 hours 1 ml samples were taken (of which the exact weight was measured) and the reaction in these samples was stopped by adding 1 ml methanol (of which the exact weight was measured too; to be able to calculate dilution factors). Stopped reaction mixtures were centrifuged to remove particulates. The supernatants were frozen at −86° C. until HPLC analysis according to the method given in Example 1. […]
# From the table it can be seen that α-H-α-amino acid amide racemase activity is present in the disintegrated cells of Agrobacterium rhizogenes Na, Agrobacterium rhizogenes Bi and Arthrobacter nicotianae as D-leucine amide is converted into L-leucine; this conversion is not detected in the chemical blanks. In the chemical blanks no D-leucine or L-leucine could be detected even after 139 hours; the D-leucine amide concentration was constant (0.7 w/w %) meaning that D-leucine amide is very stable under the applied reaction conditions.
# [3] = tested on: disintegrated cells of Agrobacterium rhizogenes Na; test: α-H-α-amino acid amide racemase activity test with disintegrated cells; assay type: biochemical; details: incubation time 139 h; 0.79 w/w % D-leucine amide
# Method: (§1) After growth of these three strains in Medium A containing 2 g/l of D-α-amino-ε-caprolactam, cells were harvested by centrifugation at 12,000×g. After centrifugation the supernatant was decanted and the wet weight of the pellet was measured. To the pellet, sonification buffer (NaCl, 16 g/l; KCl, 0.74 g/l; Na2HPO4, 0.27 g/l; glucose, 2 g/l; HEPES, 10 g/l, pH 7.0) was added in a 1:2 ratio (wet weight cell pellet:ml buffer). During storage between cell harvest and sonification the pellet was frozen in the sonification buffer at −86° C.
# (§2) Sonification was performed with a Soniprep 150 of MSE at maximal amplitude of 20 microns in periods of 10 min. using time intervals of 10 sec. (i.e., 10 sec. sonification, 10 sec. cooling down), cooling the sample on ice/acetone. Each 10 min. the cells were viewed microscopically. The sonification procedure was stopped when >70% of the cells were broken.
# (§3) 1 ml Of disintegrated cells of each of the three strains was incubated in a HEPES-NaOH buffer (20 mM) pH 7.7, to which pyridoxal-5-phosphate (0.01 mM) was added as a cofactor and D-leucine amide (60.8 mM) as a substrate in a total volume of 10 ml (0.79 w/w % D-leucine amide). After 0 and 139 hours 1 ml samples were taken (of which the exact weight was measured) and the reaction in these samples was stopped by adding 1 ml methanol (of which the exact weight was measured too; to be able to calculate dilution factors). Stopped reaction mixtures were centrifuged to remove particulates. The supernatants were frozen at −86° C. until HPLC analysis according to the method given in Example 1.
# [4] = tested on: disintegrated cells of Agrobacterium rhizogenes Bi; test: as above; assay type: biochemical; details: incubation time 139 h; 0.79 w/w % D-leucine amide
# Method: as §1, §2, §3
# [5] = tested on: disintegrated cells of Arthrobacter nicotianae; test: as above; assay type: biochemical; details: incubation time 139 h; 0.79 w/w % D-leucine amide
# Method: as §1, §2, §3
# [6] = with 20 mM EDTA, incubation time 27 h
# [7] = with 20 mM EDTA, incubation time 43 h
# [8] = without 20 mM EDTA, incubation time 27 h
# [9] = without 20 mM EDTA, incubation time 43 h
smiles,measurement,setting,value
CC(C)C[C@@H](N)C(N)=O [D-leucine amide],D-leucine amide,"[1]; with 20 mM EDTA, incubation time 0 h",2.61 wt %
same,D-leucine,[1]; [6],0.003 wt %
same,D-leucine amide,[1]; [6],1.77 wt %
same,L-leucine,[1]; [6],0.313 wt %
same,L-leucine amide,[1]; [6],0.555 wt %
same,D-leucine,[1]; [7],0.006 wt %
same,D-leucine amide,[1]; [7],1.59 wt %
same,L-leucine,[1]; [7],0.345 wt %
same,L-leucine amide,[1]; [7],0.772 wt %
same,D-leucine amide,"[1]; without 20 mM EDTA, incubation time 0 h",2.63 wt %
same,D-leucine,[1]; [8],0.009 wt %
same,D-leucine amide,[1]; [8],1.03 wt %
same,L-leucine,[1]; [8],1.71 wt %
same,L-leucine amide,[1]; [8],0.170 wt %
same,D-leucine,[1]; [9],0.017 wt %
same,D-leucine amide,[1]; [9],0.512 wt %
same,L-leucine,[1]; [9],2.12 wt %
same,L-leucine amide,[1]; [9],0.063 wt %
same,stability under the applied reaction conditions,[2],very stable
same,D-leucine,[3],0.036 w/w %
same,D-leucine amide,[3],0.51 w/w %
same,L-leucine,[3],0.078 w/w %
same,D-leucine,[4],0.013 w/w %
same,D-leucine amide,[4],0.61 w/w %
same,L-leucine,[4],0.025 w/w %
same,D-leucine,[5],0.002 w/w %
same,D-leucine amide,[5],0.56 w/w %
same,L-leucine,[5],0.068 w/w %

# — patent publication US7371555B2, “Polypeptides having α-H-α-amino acid amide racemase activity and nucleic acids encoding the same” (DSM IP Assets B.V., priority 2002, dated 2008)
